From article PMC4500456 (Journal of Medicinal Chemistry, 2015)

System: P. falciparum W2 (chloroquine resistant) strain
Experiment: In vitro activity against cultured W2 strain P. falciparum
Type: cell-based, Plasmodium falciparum

SMILES | fold more active than acid compound 4 (ester 5 vs acid 4, W2 and 3D7 strains) | IC50 (Plasmodium falciparum, W2, 48 h, read-out: IC50 (nM) (W2))
COC(=O)c1ccc(Oc2ccc3c(c2)B(O)OC3)cn1 [Compound 5, Methyl 5-(1-Hydroxy-1,3-dihydrobenzo[c][1,2]oxaborol-6-yloxy)picolinate] | about 5 fold | –
CCN(CC)CCCC(C)Nc1ccnc2cc(Cl)ccc12 (centres unmarked) [chloroquine] | – | 21 ± 6
